The results in this text go back to ChEMBL document CHEMBL4420065, “Synaptojanin-2 inhibitors for use in the treatment of cancer” (2017).

Calls of active or inactive are those of the source. No cut-off for these calls is given here.

The assay deals with MDA-MB-231. The following applies: Homo sapiens, 10 uM.
Description: Inhibition of cell invasion of human MDA-MB-231 cells at 10 uM incubated for 96 hrs by Matrigel based assay
`C/C(=C\CO[C@@H]1O[C@H](CO)[C@@H](O)[C@H](O)[C@H]1O)C(O)CCC(C)(C)O` (stereo not given in full): the inhibition entry is “Active”.

Regarding `COc1cc(O)cc(O)c1C(=O)c1ccc(O)c(O)c1`, the inhibition entry is “Active”.

Regarding `Cc1c(O)cc2c(c1O)C(=O)[C@H](O)[C@@H](c1ccc(O)c(O)c1)O2`, the inhibition entry is “Active”.

For `COc1cc(C2c3c(cc(OC)c(O)c3OC)CC(CO)C2COC2OCC(O)C(O)C2O)cc(OC)c1O` (stereo not given), the inhibition result is “Active”.

Take `O=C1C[C@@H](c2ccc(O)c(O)c2)Oc2cc(O[C@@H]3O[C@H](CO)[C@@H](O)[C@H](O)[C@H]3O)cc(O)c21`: the inhibition result is “Active”.
